According to patent US9695155B2, “Herbicidal substituted pyrimidinyloxy benzene compounds” (E. I. DU PONT DE NEMOURS AND COMPANY, priority 2013, dated 2017):

Columns and labels:
[1] = test system: johnsongrass; assay: Test C preemergence; format: in vivo, Sorghum halepense; details: Sorghum halepense, pre-emergence
In short: (§1)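 Sown in loam/sand → sprayed pre-emergence; or grown to 1–4 leaves in peat mix → sprayed post-emergence. Same solvent/surfactant formulation both ways. Greenhouse 13–15 d. Score 0–100 visual.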

[2] = test system: galium; assay: Test C preemergence; format: in vivo, Galium aparine; details: Galium, pre-emergence
In short: as §1

[3] = test system: oilseed rape; assay: Test C preemergence; format: in vivo, Brassica napus; details: Brassica napus, pre-emergence
In short: as §1

[4] = test system: corn; assay: Test C postemergence; format: in vivo, Zea mays; details: Zea mays, post-emergence, postemergence
In short: as §1

[5] = test system: Heteranthera limosa; assay: Test B flooded paddy test; format: in vivo; details: Heteranthera limosa, Flood, 250 g ai/ha; 0 to 100 scale where 0 is no effect and 100 is complete control; read-out: Plant response rating, Ducksalad
In short: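 Greenhouse flooded-pot test: compounds dosed into 3 cm standing water over 2-leaf plants, flood held constant. Rated visually after 13–15 days on 0–100 (complete control = 100); a dash marks no test result.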

[6] = test system: velvetleaf; assay: Test A preemergence; format: in vivo, Abutilon theophrasti
In short: (§2)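 Scoring: eye-based comparison with untreated controls, 0 for no effect through 100 for complete control, at about day 10. Treatments: directed soil spray preemergence; foliar spray postemergence on 2–10 cm plants at the one- to two-leaf stage. Medium: loam soil with sand.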

[7] = test system: pigweed; assay: Test A postemergence; format: in vivo, Amaranthus retroflexus; details: Amaranthus retroflexus, post-emergence, 0 to 100 scale where 0 is no effect and 100 is complete control
In short: as §2

[8] = test system: large (Lg) crabgrass; assay: Test A preemergence; format: in vivo, Digitaria sanguinalis
In short: as §2

[9] = test system: Italian ryegrass; assay: Test C preemergence; format: in vivo, Lolium multiflorum; details: Lolium multiflorum, pre-emergence
In short: as §1

[10] = test system: velvetleaf; assay: Test C preemergence; format: in vivo, Abutilon theophrasti; details: Abutilon theophrasti, pre-emergence
In short: as §1

[11] = test system: chickweed; assay: Test C postemergence; format: in vivo, Stellaria media; details: Stellaria media, post-emergence
In short: as §1

[12] = test system: large (Lg) crabgrass; assay: Test C postemergence; format: in vivo, Digitaria sanguinalis; details: Digitaria sanguinalis, post-emergence
In short: as §1

[13] = test system: morningglory; assay: Test C preemergence; format: in vivo, Ipomoea coccinea; details: Ipomoea, pre-emergence
In short: as §1

[14] = test system: wheat, winter; assay: Test C postemergence; format: in vivo, Triticum aestivum
In short: as §1

[15] = test system: giant foxtail; assay: Test A preemergence; format: in vivo, Setaria faberii
In short: as §2

SMILES: FC(F)c1cccc(Oc2ncc(Cl)cn2)c1-n1cc(Br)cn1 [Compound 194, 2-[2-(4-bromo-1H-pyrazol-1-yl)-3-(difluoromethyl)phenoxy]-5-chloropyrimidine]
- pest or weed control at 125 g/ha ([1]; 125 g ai/ha, preemergence, scale 0 (no effect) to 100 (complete control), read-out: Johnsongrass plant response rating): 80%
- pest or weed control at 250 g/ha ([1]; 250 g ai/ha, preemergence, scale 0 (no effect) to 100 (complete control), read-out: Johnsongrass plant response rating): 95%
- pest or weed control at 62 g/ha ([1]; Preemergence, 62 g ai/ha, scale 0 to 100, 0 no effect, 100 complete control, read-out: Plant response rating, Johnsongrass): 25%
- pest or weed control at 125 g/ha ([2]; 125 g ai/ha, preemergence, scale 0 (no effect) to 100 (complete control), read-out: Galium plant response rating): 90%
- pest or weed control at 250 g/ha ([2]; 250 g ai/ha, preemergence, scale 0 (no effect) to 100 (complete control), read-out: Galium plant response rating): 100%
- pest or weed control at 62 g/ha ([2]; Preemergence, 62 g ai/ha, scale 0 to 100, 0 no effect, 100 complete control, read-out: Plant response rating, Galium): 90%
- plant injury at 125 g/ha ([3]; 125 g ai/ha, preemergence, scale 0 (no effect) to 100 (complete control), read-out: Oilseed Rape plant response rating): 90%
- plant injury at 250 g/ha ([3]; 250 g ai/ha, preemergence, scale 0 (no effect) to 100 (complete control), read-out: Oilseed Rape plant response rating): 100%
- plant injury at 62 g/ha ([3]; Preemergence, 62 g ai/ha, scale 0 to 100, 0 no effect, 100 complete control, read-out: Plant response rating, Oilseed Rape): 30%
- plant injury at 31 g/ha ([4]; 31 g ai/ha, visual rating, scale 0 to 100 (0 no effect, 100 complete control), 13 to 15 days, read-out: Corn plant response rating): 5%
- Corn plant response rating (crop injury, 0 = no effect, 100 = complete kill) at 125 g/ha ([4]; 125 g ai/ha, visual rating, scale 0 to 100 (0 no effect, 100 complete control)): 25%
- plant injury at 250 g/ha ([4]; 250 g ai/ha, read-out: Plant response rating (0 to 100), Corn): 30%
- pest or weed control at 250 g/ha [5]: 98%
- Velvetleaf plant response rating (0 to 100 scale) ([6]; 125 g ai/ha): 80
- pest or weed control at 500 g/ha ([6]; Abutilon theophrasti, pre-emergence, 240 h, 500 g ai/ha, 0 to 100 scale where 0 is no effect and 100 is complete control, read-out: Velvetleaf plant response rating): 100%
- pest or weed control at 500 g/ha ([7]; 500 g ai/ha, read-out: Plant response rating, Pigweed): 100%
- pest or weed control at 125 g/ha ([7]; 240 h, 125 g ai/ha, read-out: Pigweed plant response rating): 100%
- Crabgrass, Large plant response rating (0 to 100 scale) ([8]; 125 g ai/ha): 100
- pest or weed control at 500 g/ha ([8]; Digitaria sanguinalis, pre-emergence, 240 h, 500 g ai/ha, 0 to 100 scale where 0 is no effect and 100 is complete control, read-out: Crabgrass, Large plant response rating): 100%
- pest or weed control at 125 g/ha ([9]; 125 g ai/ha, preemergence, scale 0 (no effect) to 100 (complete control), read-out: Ryegrass, Italian plant response rating): 70%
- pest or weed control at 250 g/ha ([9]; 250 g ai/ha, preemergence, scale 0 (no effect) to 100 (complete control), read-out: Ryegrass, Italian plant response rating): 90%
- pest or weed control at 62 g/ha ([9]; Preemergence, 62 g ai/ha, scale 0 to 100, 0 no effect, 100 complete control, read-out: Plant response rating, Ryegrass, Italian): 20%
- pest or weed control at 125 g/ha ([10]; 125 g ai/ha, preemergence, scale 0 (no effect) to 100 (complete control), read-out: Velvetleaf plant response rating): 100%
- pest or weed control at 250 g/ha ([10]; 250 g ai/ha, preemergence, scale 0 (no effect) to 100 (complete control), read-out: Velvetleaf plant response rating): 100%
- pest or weed control at 62 g/ha ([10]; Preemergence, 62 g ai/ha, scale 0 to 100, 0 no effect, 100 complete control, read-out: Plant response rating, Velvetleaf): 75%
- pest or weed control at 31 g/ha ([11]; 31 g ai/ha, postemergence, visual rating, scale 0 to 100 (0 no effect, 100 complete control), 13 to 15 days, read-out: Chickweed plant response rating): 50%
- pest or weed control at 125 g/ha ([11]; 125 g ai/ha, postemergence, visual rating, scale 0 to 100 (0 no effect, 100 complete control), read-out: Plant response rating, Chickweed): 70%
- pest or weed control at 250 g/ha ([11]; 250 g ai/ha, postemergence, read-out: Plant response rating (0 to 100), Chickweed): 85%
- pest or weed control at 62 g/ha ([11]; Postemergence, 62 g ai/ha, scale 0 to 100 (0 no effect, 100 complete control), 13 to 15 days, read-out: Plant response rating, Chickweed): 70%
- pest or weed control at 31 g/ha ([12]; 31 g ai/ha, postemergence, visual rating, scale 0 to 100 (0 no effect, 100 complete control), 13 to 15 days, read-out: Crabgrass, Large plant response rating): 10%
- pest or weed control at 125 g/ha ([12]; 125 g ai/ha, postemergence, visual rating, scale 0 to 100 (0 no effect, 100 complete control), read-out: Plant response rating, Crabgrass, Large): 10%
- pest or weed control at 250 g/ha ([12]; 250 g ai/ha, postemergence, read-out: Plant response rating (0 to 100), Crabgrass, Large): 50%
- pest or weed control at 62 g/ha ([12]; Postemergence, 62 g ai/ha, scale 0 to 100 (0 no effect, 100 complete control), 13 to 15 days, read-out: Plant response rating, Crabgrass, Large): 10%
- pest or weed control at 125 g/ha ([13]; 125 g ai/ha, preemergence, scale 0 (no effect) to 100 (complete control), read-out: Morningglory plant response rating): 95%
- pest or weed control at 250 g/ha ([13]; 250 g ai/ha, preemergence, scale 0 (no effect) to 100 (complete control), read-out: Morningglory plant response rating): 98%
- pest or weed control at 62 g/ha ([13]; Preemergence, 62 g ai/ha, scale 0 to 100, 0 no effect, 100 complete control, read-out: Plant response rating, Morningglory): 0%
- Wheat plant response rating ([14]; 31 g ai/ha, postemergence, visual rating, scale 0 to 100 (0 no effect, 100 complete control), 13 to 15 days): 0
- plant injury at 125 g/ha ([14]; Triticum aestivum, post-emergence, 125 g ai/ha, postemergence, visual rating, scale 0 to 100 (0 no effect, 100 complete control), read-out: Plant response rating, Wheat): 0%
- plant injury at 250 g/ha ([14]; Triticum aestivum, post-emergence, 250 g ai/ha, postemergence, read-out: Plant response rating (0 to 100), Wheat): 5%
- plant injury at 62 g/ha ([14]; Triticum aestivum, post-emergence, Postemergence, 62 g ai/ha, scale 0 to 100 (0 no effect, 100 complete control), 13 to 15 days, read-out: Plant response rating, Wheat): 0%
- Foxtail, Giant plant response rating (0 to 100 scale) ([15]; 125 g ai/ha): 100
- pest or weed control at 500 g/ha ([15]; Setaria faberi, pre-emergence, 240 h, 500 g ai/ha, 0 to 100 scale where 0 is no effect and 100 is complete control, read-out: Foxtail, Giant plant response rating): 100%
